Data: ChEMBL document CHEMBL1201862, “PubChem BioAssay data set” (2004)
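In this assay, cells in 96-well plates receive the compound at five concentrations for 48 hours. Endpoints are linearly interpolated between the surrounding concentrations. GI50 is the concentration that inhibits growth by half.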 The source made the active and inactive calls. No stated cut-off is given here; in the data, active = GI50 up to about 1.1 µM and inactive = higher.

Experiments:
Experiment in all cases: NCI-60 cell line screen, 48 h
[1] = test system: 786-0
[2] = test system: A549
[3] = test system: ACHN
[4] = test system: CAKI-1
[5] = test system: CCRF-CEM
[6] = test system: COLO 205
[7] = test system: DLD-1
[8] = test system: DMS-114
[9] = test system: DMS-273
[10] = test system: EKVX
[11] = test system: HCC 2998
[12] = test system: HCT-116
[13] = test system: HCT-15
[14] = test system: HL-60
[15] = test system: HOP-18
[16] = test system: HOP-62
[17] = test system: HT-29
[18] = test system: K562
[19] = test system: KM12
[20] = test system: LOX IMVI
[21] = test system: M14
[22] = test system: M19-MEL
[23] = test system: MOLT-4
[24] = test system: Malme-3M
[25] = test system: NCI-H226
[26] = test system: NCI-H23
[27] = test system: NCI-H522
[28] = test system: OVCAR-3
[29] = test system: OVCAR-4
[30] = test system: OVCAR-5
[31] = test system: OVCAR-8
[32] = test system: RPMI-8226
[33] = test system: SF-268
[34] = test system: SF-295
[35] = test system: SF-539
[36] = test system: SK-MEL-28
[37] = test system: SK-MEL-2
[38] = test system: SK-MEL-5
[39] = test system: SN12C
[40] = test system: SNB-19
[41] = test system: SNB-75
[42] = test system: SNB-78
[43] = test system: SR
[44] = test system: SW-620
[45] = test system: TK-10
[46] = test system: UACC-257
[47] = test system: UO-31
[48] = test system: XF498
[49] = test system: IGROV-1
[50] = test system: KM-20L2
[51] = test system: LXFL 529
[52] = test system: RXF 393
[53] = test system: SK-OV-3
[54] = test system: U-251
[55] = test system: UACC-62
[56] = test system: NCI-H460
[57] = test system: HOP-92

Measured: GI50

COc1cc(/C=C2\C(=O)N(C(=O)Cc3ccccc3)N=C2C)ccc1O
inactive: [1] > 100 µM | [2] > 100 µM | [3] > 100 µM | [4] > 100 µM | [5] > 100 µM | [6] > 100 µM | [7] > 100 µM | [8] > 100 µM | [9] > 100 µM | [10] > 100 µM | [11] > 100 µM | [12] > 100 µM | [14] > 100 µM | [15] > 100 µM | [16] > 100 µM | [17] > 10 µM | [18] > 100 µM | [19] > 100 µM | [20] > 100 µM | [21] > 100 µM | [22] > 100 µM | [23] > 100 µM | [24] > 100 µM | [25] > 100 µM | [26] > 100 µM | [27] > 100 µM | [28] > 100 µM | [29] > 100 µM | [30] > 100 µM | [31] > 100 µM | [32] > 100 µM | [33] > 100 µM | [34] > 100 µM | [35] > 100 µM | [36] > 100 µM | [37] > 100 µM | [38] 3.01 µM | [39] > 100 µM | [40] > 100 µM | [41] > 100 µM | [42] > 100 µM | [43] > 100 µM | [44] > 100 µM | [45] > 100 µM | [46] > 100 µM | [47] > 100 µM | [48] > 100 µM
> 100 µM: [13]

NC1C=NNC1=O (stereo unspecified)
> 100 µM: [13]
inactive: [2] > 100 µM | [3] > 100 µM | [4] > 100 µM | [5] > 100 µM | [6] > 100 µM | [7] > 100 µM | [8] > 100 µM | [9] > 100 µM | [10] > 100 µM | [11] > 100 µM | [14] > 100 µM | [17] > 100 µM | [49] > 100 µM | [18] > 100 µM | [50] > 100 µM | [19] > 100 µM | [20] > 100 µM | [51] > 100 µM | [21] > 100 µM | [23] > 100 µM | [24] > 100 µM | [26] > 100 µM | [27] > 100 µM | [29] > 100 µM | [30] > 100 µM | [31] > 100 µM | [32] > 100 µM | [52] > 100 µM | [33] > 100 µM | [34] > 100 µM | [35] > 100 µM | [36] > 100 µM | [37] > 100 µM | [38] > 100 µM | [53] > 100 µM | [39] > 100 µM | [40] > 100 µM | [41] > 100 µM | [42] > 100 µM | [44] > 100 µM | [45] > 100 µM | [54] > 100 µM | [46] > 100 µM | [55] > 100 µM | [47] > 100 µM | [48] > 100 µM
active: [15] < 0.01 µM

N#CC(NC12CC3CC(CC(C3)C1)C2)c1ccccc1C(F)(F)F (stereo unspecified)
inactive: [2] > 100 µM | [3] > 100 µM | [4] > 100 µM | [5] > 100 µM | [6] > 100 µM | [7] > 100 µM | [8] > 100 µM | [9] > 100 µM | [10] > 100 µM | [11] > 100 µM | [12] > 100 µM | [14] > 100 µM | [15] > 100 µM | [16] > 100 µM | [17] > 100 µM | [18] > 100 µM | [50] > 100 µM | [19] > 100 µM | [20] > 100 µM | [51] > 100 µM | [21] > 100 µM | [22] > 100 µM | [23] > 100 µM | [24] > 100 µM | [25] > 100 µM | [26] > 100 µM | [56] > 100 µM | [27] > 100 µM | [28] > 100 µM | [29] > 100 µM | [30] > 100 µM | [31] > 100 µM | [32] > 100 µM | [52] > 100 µM | [33] > 100 µM | [35] > 100 µM | [36] > 100 µM | [37] > 100 µM | [38] > 100 µM | [39] > 100 µM | [40] > 100 µM | [43] > 100 µM | [44] > 100 µM | [45] > 100 µM | [47] > 100 µM | [48] > 100 µM
> 100 µM: [13]

Cc1cc(O)nc(NNC(C#N)c2cccc([N+](=O)[O-])c2)n1 (stereo unspecified)
> 100 µM: [13]
inactive: [1] > 100 µM | [2] > 100 µM | [3] > 100 µM | [4] > 100 µM | [5] > 100 µM | [6] > 100 µM | [7] > 100 µM | [8] > 100 µM | [9] > 100 µM | [12] > 100 µM | [14] > 100 µM | [15] > 100 µM | [16] > 100 µM | [57] > 100 µM | [17] > 100 µM | [49] > 100 µM | [18] > 100 µM | [50] > 100 µM | [19] > 100 µM | [20] > 100 µM | [51] > 100 µM | [21] > 100 µM | [22] > 100 µM | [23] > 100 µM | [24] > 100 µM | [25] > 100 µM | [26] > 100 µM | [56] > 100 µM | [27] > 100 µM | [28] > 100 µM | [29] > 100 µM | [30] > 100 µM | [31] > 100 µM | [32] > 100 µM | [52] > 100 µM | [33] > 100 µM | [34] > 100 µM | [35] > 100 µM | [36] > 100 µM | [37] > 100 µM | [38] > 100 µM | [53] > 100 µM | [39] > 100 µM | [41] 65.3 µM | [42] > 100 µM | [43] 74 µM | [44] > 100 µM | [45] > 100 µM | [54] > 100 µM | [46] > 100 µM | [55] > 100 µM | [47] 73.1 µM
